Assay results: paper doi:10.64898/2025.12.30.696991 (bioRxiv, 2026)

Tested on: intracellular MDR S. Typhimurium (ATCC 700408)
Test: Intracellular gentamicin protection assay, MDR S. Typhimurium in RAW 264.7 macrophages
Assay type: cell-based, Salmonella enterica serovar Typhimurium
Details: Salmonella enterica, RAW264.7, Table 2; intracellular burden 50% in RAW 264.7
Protocol: (§1) RAW 264.7 cells were seeded at 3×10^4 cells/well in a 96-well plate and maintained at 37°C for 20 hours. A single colony of susceptible or MDR S. Typhimurium was inoculated and cultured overnight in nutrient broth and diluted to obtain a log-phase culture stock with an adjusted optical density (OD600) of 0.6, equivalent to a concentration of 3×10^8 CFU/mL (determined by a prior colony forming units (CFU) assay). The bacterial stock solution was resuspended in antibiotic-free DMEM supplemented with 2% FBS and further diluted to obtain a bacterial concentration of 3×10^6 CFU/mL. Cell media was aspirated and replaced with 100 μL of bacteria culture in DMEM resulting in a multiplicity of infection (MOI) of 10. The cells underwent infection for two hours or 30 minutes at 37°C with susceptible or MDR bacteria, respectively. This differential infection incubation period was based on strain-specific infectivity potential. […] Media was aspirated from the wells and replaced with DMEM (2% FBS) containing 100 μg/mL gentamicin for one hour at 37°C to eliminate extracellular bacteria. Following this step, cells were washed once with media and treated for 22 hours with analogs at varying concentrations (0.1 – 5 μM) in DMEM (2% FBS, no pen/strep) containing 10 μg/mL gentamicin to suppress extracellular bacterial growth. AR-12 treated, uninfected, and DMSO-vehicle treated cells were included as controls. Post treatment, cells were washed with PBS and lysed with 0.1% Triton-X100, a concentration sufficient to disrupt host cells while preserving bacterial integrity. The lysates containing intracellular bacteria were serially diluted and enumerated by using drop-plate assay as described previously.([27]) Agar plates were incubated overnight at 37°C before CFU from each dilution were counted.
Supplemental Figure 2: Evaluating lead compound efficacy against MDR S. Typhimurium. A) Schematic illustrating gentamicin protection assay. Day 0 RAW 264.7 macrophages are seeded into 96-well plate and STM culture is inoculated. Day 1: RAW 264.7 cells are infected with STM at an MOI of 10 for 30 min, washed, then treated with gentamicin for 1hr to remove extracellular bacteria. AR-12 analogs added to infected cells for 22hr incubation. Day 2: RAWs are washed, lysed, diluted and then dropped onto agar plates. Day 3: colony forming units (CFUs) counted. B) Dose effect curves of intracellular MDR S. Typhimurium viability from RAW 264.7 macrophages after 22hr treatment with hit compounds. CFUs normalized to untreated controls. Parental compound AR-12 included for comparison.

IC50 [nM]	Compound
370	N#Cc1ccc(CNC2CCN(c3ccc(-n4nc(C(F)(F)F)cc4C4CCCCC4)cc3)C2)cc1 (stereo not shown) [Compound 365]
60	FC(F)(F)c1cc(C2CCCCC2)n(-c2ccc(OC3CCNCC3)cc2)n1 [Compound 370]
110	FC(F)(F)c1cc(C2CCCCC2)n(-c2ccc(OC3CCN(Cc4ccccc4)CC3)cc2)n1 [Compound 371]

Same assay, conditions: Table 2; LC50 / IC50

Compound	MDR Selectivity
N#Cc1ccc(CNC2CCN(c3ccc(-n4nc(C(F)(F)F)cc4C4CCCCC4)cc3)C2)cc1 (stereo not shown) [Compound 365]	115
FC(F)(F)c1cc(C2CCCCC2)n(-c2ccc(OC3CCNCC3)cc2)n1 [Compound 370]	269
FC(F)(F)c1cc(C2CCCCC2)n(-c2ccc(OC3CCN(Cc4ccccc4)CC3)cc2)n1 [Compound 371]	790

Same assay, conditions: defined as 2-fold difference MDR IC50 / Susc IC50

difference of IC50 between susceptible and MDR S. Typhimurium	Compound
strongly different	N#Cc1ccc(CNC2CCN(c3ccc(-n4nc(C(F)(F)F)cc4C4CCCCC4)cc3)C2)cc1 (stereo not shown) [Compound 365]

Tested on: intracellular susceptible S. Typhimurium (ATCC 700720)
Test: Intracellular gentamicin protection assay, susceptible S. Typhimurium in RAW 264.7 macrophages
Assay type: cell-based, Salmonella enterica serovar Typhimurium
Details: Salmonella enterica, RAW264.7, 22 h, Table 1; concentration at which intracellular susceptible S. Typhimurium burden is 50% in RAW 264.7 macrophages; 22 h treatment; read-out: IC50
Protocol: as §1

IC50 [nM]	Compound
150	N#Cc1ccc(CNC2CCN(c3ccc(-n4nc(C(F)(F)F)cc4C4CCCCC4)cc3)C2)cc1 (stereo not shown) [Compound 365]
80	FC(F)(F)c1cc(C2CCCCC2)n(-c2ccc(OC3CCNCC3)cc2)n1 [Compound 370]
140	FC(F)(F)c1cc(C2CCCCC2)n(-c2ccc(OC3CCN(Cc4ccccc4)CC3)cc2)n1 [Compound 371]

Same assay, conditions: Salmonella enterica, RAW264.7, Table 2; intracellular burden 50% in RAW 264.7; read-out: Susc. IC50

IC50 [nM]	Compound
150	N#Cc1ccc(CNC2CCN(c3ccc(-n4nc(C(F)(F)F)cc4C4CCCCC4)cc3)C2)cc1 (stereo not shown) [Compound 365]
80	FC(F)(F)c1cc(C2CCCCC2)n(-c2ccc(OC3CCNCC3)cc2)n1 [Compound 370]
140	FC(F)(F)c1cc(C2CCCCC2)n(-c2ccc(OC3CCN(Cc4ccccc4)CC3)cc2)n1 [Compound 371]

Same assay, conditions: Table 1; LC50 / IC50, susceptible S. Typhimurium

Compound	Selectivity
N#Cc1ccc(CNC2CCN(c3ccc(-n4nc(C(F)(F)F)cc4C4CCCCC4)cc3)C2)cc1 (stereo not shown) [Compound 365]	285
FC(F)(F)c1cc(C2CCCCC2)n(-c2ccc(OC3CCNCC3)cc2)n1 [Compound 370]	229
FC(F)(F)c1cc(C2CCCCC2)n(-c2ccc(OC3CCN(Cc4ccccc4)CC3)cc2)n1 [Compound 371]	644

Tested on: planktonic susceptible S. Typhimurium (ATCC 700720)
Test: Direct effect on planktonic susceptible bacteria (optical density 600 nm)
Assay type: cell-based, Salmonella enterica serovar Typhimurium
Details: Salmonella enterica; Table 1; planktonic susceptible S. Typhimurium viability 50% by optical density, 22 hr; read-out: MIC50
Protocol: (§2) A single colony of susceptible or MDR bacteria was inoculated into nutrient broth and incubated overnight at 37°C in an orbital shaker set at 200 rpm. The overnight culture was sub-cultured (1:100) in fresh medium to obtain log-phase bacterial growth after an additional 3 hr incubation at 37°C and further adjusted to obtain a bacterial stock solution with an absorbance value of 0.6 at 600 nm, equivalent to a concentration of 3×10^8 CFU/mL. The bacterial stock was diluted with nutrient broth to obtain 3×10^4 CFU/well in a 96 well plate. Next, 10 μL of each analog were added to yield a total volume of 100 μL /well with a final concentration of 20 μM. Drug-free and bacteria-free wells were used as controls. The plate was incubated at 37°C for 22 hr. Percent bacterial viability was determined using optical density measurements at 600 nm, subtracting out bacteria free absorbance (background) and normalizing to a DMSO vehicle control. Bacterial viability was plotted against increasing drug concentration to obtain the 50% minimum inhibitory concentration (MIC50), defined as the drug concentration resulting in 50% bacterial viability.

MIC50 [µM]	Compound
> 20	N#Cc1ccc(CNC2CCN(c3ccc(-n4nc(C(F)(F)F)cc4C4CCCCC4)cc3)C2)cc1 (stereo not shown) [Compound 365]
> 20	FC(F)(F)c1cc(C2CCCCC2)n(-c2ccc(OC3CCNCC3)cc2)n1 [Compound 370]
> 20	FC(F)(F)c1cc(C2CCCCC2)n(-c2ccc(OC3CCN(Cc4ccccc4)CC3)cc2)n1 [Compound 371]

Same assay, conditions: Salmonella enterica; Table 2; planktonic Salmonella, OD 600 nm; read-out: Susc. MIC50

MIC50 [µM]	Compound
> 20	N#Cc1ccc(CNC2CCN(c3ccc(-n4nc(C(F)(F)F)cc4C4CCCCC4)cc3)C2)cc1 (stereo not shown) [Compound 365]
> 20	FC(F)(F)c1cc(C2CCCCC2)n(-c2ccc(OC3CCNCC3)cc2)n1 [Compound 370]
> 20	FC(F)(F)c1cc(C2CCCCC2)n(-c2ccc(OC3CCN(Cc4ccccc4)CC3)cc2)n1 [Compound 371]

Tested on: not listed separately
Test: in vitro
Assay type: cell-based
Details: mouse, LC50
Protocol: Cell proliferation and viability in the presence of the analogs was tested in the macrophage cell line RAW 264.7 using a 3-(4,5-dimethylthiazol-2-yl)-2,5-diphenyl-2H-tetrazolium bromide (MTT) assay. Cells were seeded at 3×10^4 cells/well in 96 well plates in DMEM (10% FBS, 1% pen/strep). […] DMSO vehicle was utilized as a control, as all the drugs were reconstituted from DMSO stocks. After 24 hr treatment, media was replaced with 100 μL of 0.6 mg/mL MTT solution and the cells were incubated at 37°C until formazan crystals formed. The MTT solution was then replaced with 100 μL of isopropanol, to dissolve the formazan crystals. Cell viability was determined by measuring absorbance at 560 nm of drug treated cells normalized to DMSO vehicle controls. The absorbance at 670 nm was used as a background correction. Cell viability was plotted against increasing drug concentration to obtain the 50% lethal concentration (LC50), defined as the drug concentration resulting in 50% cell viability.

Compound	CC50 at 24 h [nM]
N#Cc1ccc(CNC2CCN(c3ccc(-n4nc(C(F)(F)F)cc4C4CCCCC4)cc3)C2)cc1 (stereo not shown) [Compound 365]	42700
FC(F)(F)c1cc(C2CCCCC2)n(-c2ccc(OC3CCNCC3)cc2)n1 [Compound 370]	17200
FC(F)(F)c1cc(C2CCCCC2)n(-c2ccc(OC3CCN(Cc4ccccc4)CC3)cc2)n1 [Compound 371]	90200

Tested on: planktonic MDR S. Typhimurium (ATCC 700408)
Test: Direct effect on planktonic MDR bacteria (optical density 600 nm)
Assay type: cell-based, Salmonella enterica serovar Typhimurium
Details: Salmonella enterica, Table 2, OD 600 nm
Protocol: as §2

MIC50 [µM]	Compound
> 20	N#Cc1ccc(CNC2CCN(c3ccc(-n4nc(C(F)(F)F)cc4C4CCCCC4)cc3)C2)cc1 (stereo not shown) [Compound 365]
> 20	FC(F)(F)c1cc(C2CCCCC2)n(-c2ccc(OC3CCNCC3)cc2)n1 [Compound 370]
> 20	FC(F)(F)c1cc(C2CCCCC2)n(-c2ccc(OC3CCN(Cc4ccccc4)CC3)cc2)n1 [Compound 371]
